Measured values taken from the supplement of paper PMC11061612.

Columns and labels:
Carboplatin = compound: C1CC(C1)(C(=O)[O-])C(=O)[O-].N.N.[Pt+2] [Carboplatin]; settings: max 10 µM
How it was run: (§1)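 Cancer cell lines were dosed for 72 hours (final DMSO typically 0.2%) after 24 hours at 37°C and 5% CO2 in 1536-well plates containing 7.5 μl DMEM/F12 or RPMI with 10% FBS. Viability came from CellTiter-Glo 2.0 luminescence, scaled between blank-well and DMSO-well means, and dose responses were fitted to a two-parameter logistic curve with a non-linear mixed effects model. The single-agent IC50 was obtained from this fit.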

AZD5363 = compound: C1CN(CCC1(C(=O)N[C@@H](CCO)C2=CC=C(C=C2)Cl)N)C3=NC=NC4=C3C=CN4 [AZD5363]; settings: max 10 µM
How it was run: as §1

AZD1775 = compound: C=CCn1c(=O)c2cnc(Nc3ccc(N4CCN(C)CC4)cc3)nc2n1-c1cccc(C(C)(C)O)n1 [AZD1775]; settings: max 3 µM
How it was run: as §1

Trametinib = compound: CC(=O)Nc1cccc(-n2c(=O)n(C3CC3)c(=O)c3c(Nc4ccc(I)cc4F)n(C)c(=O)c(C)c32)c1 [Trametinib]; settings: max 1 µM
How it was run: as §1

Paclitaxel = compound: CC(=O)O[C@H]1C(=O)[C@@]2(C)[C@H]([C@H](OC(=O)c3ccccc3)[C@]3(O)C[C@H](OC(=O)[C@H](O)[C@@H](NC(=O)c4ccccc4)c4ccccc4)C(C)=C1C3(C)C)[C@]1(OC(C)=O)CO[C@@H]1C[C@@H]2O [Paclitaxel]; settings: max 3 µM
How it was run: as §1

Palbociclib = compound: CC(=O)c1c(C)c2cnc(Nc3ccc(N4CCNCC4)cn3)nc2n(C2CCCC2)c1=O [Palbociclib]; settings: max 10 µM
How it was run: as §1

AZD1390 = compound: CC(C)n1c(=O)n(C)c2cnc3cc(F)c(-c4ccc(OCCCN5CCCCC5)nc4)cc3c21 [AZD1390]; settings: max 0.3 µM
How it was run: as §1

Venetoclax = compound: CC1(C)CCC(CN2CCN(c3ccc(C(=O)NS(=O)(=O)c4ccc(NCC5CCOCC5)c([N+](=O)[O-])c4)c(Oc4cnc5[nH]ccc5c4)c3)CC2)=C(c2ccc(Cl)cc2)C1 [Venetoclax]; settings: max 1 µM
How it was run: as §1

Dasatinib = compound: CC1=C(C(=CC=C1)Cl)NC(=O)C2=CN=C(S2)NC3=CC(=NC(=N3)C)N4CCN(CC4)CCO [Dasatinib]; settings: max 2 µM
How it was run: as §1

SG3199 = compound: CC1=CN2[C@@H](C1)C=NC3=CC(=C(C=C3C2=O)OC)OCCCCCOC4=C(C=C5C(=C4)N=C[C@@H]6CC(=CN6C5=O)C)OC [SG3199]; settings: max 0.001 µM
How it was run: as §1

AZD2811 = compound: CCN(CCO)CCCOc1ccc2c(Nc3cc(CC(=O)Nc4cccc(F)c4)[nH]n3)ncnc2c1 [AZD2811]; settings: max 1 µM
How it was run: as §1

SN-38 = compound: CCc1c2c(nc3ccc(O)cc13)-c1cc3c(c(=O)n1C2)COC(=O)[C@]3(O)CC [SN-38]; settings: max 0.3 µM
How it was run: as §1

AZD0156 = compound: CN(C)CCCOc1ccc(-c2ccc3ncc4c(c3c2)n(C2CCOCC2)c(=O)n4C)cn1 [AZD0156]; settings: max 3 µM
How it was run: as §1

AZD4320 = compound: CN(CC[C@H](CSC1=CC=CC=C1)NC2=C(C=C(C=C2)S(=O)(=O)NC(=O)C3=CC=C(C=C3)N4CCC(CC4)[C@H](C5=CC=CC=C5C6=CC=C(C=C6)Cl)O)S(=O)(=O)C(F)(F)F)CCO [AZD4320]; settings: max 1 µM
How it was run: as §1

Alisertib = compound: COc1cc(Nc2ncc3c(n2)-c2ccc(Cl)cc2C(c2c(F)cccc2OC)=NC3)ccc1C(=O)O [Alisertib]; settings: max 10 µM
How it was run: as §1

Etoposide = compound: COc1cc([C@@H]2c3cc4c(cc3[C@@H](O[C@@H]3O[C@@H]5CO[C@@H](C)O[C@H]5[C@H](O)[C@H]3O)[C@H]3COC(=O)[C@H]23)OCO4)cc(OC)c1O [Etoposide]; settings: max 10 µM
How it was run: as §1

Gefitinib = compound: COc1cc2ncnc(Nc3ccc(F)c(Cl)c3)c2cc1OCCCN1CCOCC1 [Gefitinib]; settings: max 10 µM
How it was run: as §1

Prexasertib = compound: COc1cccc(OCCCN)c1-c1cc(Nc2cnc(C#N)cn2)n[nH]1 [Prexasertib]; settings: max 1 µM
How it was run: as §1

Doxorubicin = compound: COc1cccc2c1C(=O)c1c(O)c3c(c(O)c1C2=O)C[C@@](O)(C(=O)CO)C[C@@H]3O[C@H]1C[C@H](N)[C@H](O)[C@H](C)O1 [Doxorubicin]; settings: max 1 µM
How it was run: as §1

AZD5153 = compound: COc1nnc2ccc(N3CCC(c4ccc(OCCN5CCN(C)C(=O)[C@H]5C)cc4)CC3)nn12 [AZD5153]; settings: max 1 µM
How it was run: as §1

Lapatinib = compound: CS(=O)(=O)CCNCc1ccc(-c2ccc3ncnc(Nc4ccc(OCc5cccc(F)c5)c(Cl)c4)c3c2)o1 [Lapatinib]; settings: max 10 µM
How it was run: as §1

AZD8186 = compound: C[C@@H](Nc1cc(F)cc(F)c1)c1cc(C(=O)N(C)C)cc2c(=O)cc(N3CCOCC3)oc12 [AZD8186]; settings: max 10 µM
How it was run: as §1

Crizotinib = compound: C[C@@H](Oc1cc(-c2cnn(C3CCNCC3)c2)cnc1N)c1c(Cl)ccc(F)c1Cl [Crizotinib]; settings: max 10 µM
How it was run: as §1

Savolitinib = compound: C[C@@H](c1ccc2nccn2c1)n1nnc2ncc(-c3cnn(C)c3)nc21 [Savolitinib]; settings: max 1 µM
How it was run: as §1

AZD6738 = compound: C[C@@H]1COCCN1C2=NC(=NC(=C2)C3(CC3)[S@](=N)(=O)C)C4=C5C=CNC5=NC=C4 [AZD6738]; settings: max 10 µM
How it was run: as §1

AZD5991 = compound: Cc1c2c(nn1C)CSCc1cc(n(C)n1)CSc1cc(c3ccccc3c1)OCCCc1c(C(=O)O)n(C)c3c-2c(Cl)ccc13 [AZD5991]; settings: max 1 µM
How it was run: as §1

AZD7648 = compound: Cc1cc2ncnn2cc1Nc1ncc2c(n1)n(C1CCOCC1)c(=O)n2C [AZD7648]; settings: max 10 µM
How it was run: as §1

Taselisib = compound: Cc1nc(-c2cn3c(n2)-c2ccc(-c4cnn(C(C)(C)C(N)=O)c4)cc2OCC3)n(C(C)C)n1 [Taselisib]; settings: max 10 µM
How it was run: as §1

Selumetinib = compound: Cn1cnc2c(F)c(Nc3ccc(Br)cc3Cl)c(C(=O)NOCCO)cc21 [Selumetinib]; settings: max 10 µM
How it was run: as §1

SRA737 = compound: N#Cc1cnc(Nc2cc(NC[C@H]3CNCCO3)c(C(F)(F)F)cn2)cn1 [SRA737]; settings: max 10 µM
How it was run: as §1

MK-2206 = compound: NC1(c2ccc(-c3nc4ccn5c(=O)[nH]nc5c4cc3-c3ccccc3)cc2)CCC1 [MK-2206]; settings: max 10 µM
How it was run: as §1

Gemcitabine = compound: Nc1ccn([C@@H]2O[C@H](CO)[C@@H](O)C2(F)F)c(=O)n1 [Gemcitabine]; settings: max 0.3 µM
How it was run: as §1

[1] = compound: O=C(Nc1ccc2[nH]nc(-c3ccncc3)c2c1)[C@@H]1CCN(CC(=O)N2CCN(c3ccc(-c4ncccn4)cc3)CC2)C1; settings: max 5 µM
How it was run: as §1

Olaparib = compound: O=C(c1cc(Cc2n[nH]c(=O)c3ccccc23)ccc1F)N1CCN(C(=O)C2CC2)CC1 [Olaparib]; settings: max 10 µM
How it was run: as §1

5-Fluorouracil = compound: O=c1[nH]cc(F)c(=O)[nH]1 [5-Fluorouracil]; settings: max 20 µM
How it was run: as §1

| Cell Line | IC50, cell viability 72 h (Carboplatin) [nM] | IC50, cell viability 72 h (AZD5363) [nM] | IC50, cell viability 72 h (AZD1775) [nM] | IC50, cell viability 72 h (Trametinib) [nM] | IC50, cell viability 72 h (Paclitaxel) [nM] | IC50, cell viability 72 h (Palbociclib) [nM] | IC50, cell viability 72 h (AZD1390) [nM] | IC50, cell viability 72 h (Venetoclax) [nM] | IC50, cell viability 72 h (Dasatinib) [nM] | IC50, cell viability 72 h (SG3199) [nM] | IC50, cell viability 72 h (AZD2811) [nM] | IC50, cell viability 72 h (SN-38) [nM] | IC50, cell viability 72 h (AZD0156) [nM] | IC50, cell viability 72 h (AZD4320) [nM] | IC50, cell viability 72 h (Alisertib) [nM] | IC50, cell viability 72 h (Etoposide) [nM] | IC50, cell viability 72 h (Gefitinib) [nM] | IC50, cell viability 72 h (Prexasertib) [nM] | IC50, cell viability 72 h (Doxorubicin) [nM] | IC50, cell viability 72 h (AZD5153) [nM] | IC50, cell viability 72 h (Lapatinib) [nM] | IC50, cell viability 72 h (AZD8186) [nM] | IC50, cell viability 72 h (Crizotinib) [nM] | IC50, cell viability 72 h (Savolitinib) [nM] | IC50, cell viability 72 h (AZD6738) [nM] | IC50, cell viability 72 h (AZD5991) [nM] | IC50, cell viability 72 h (AZD7648) [nM] | IC50, cell viability 72 h (Taselisib) [nM] | IC50, cell viability 72 h (Selumetinib) [nM] | IC50, cell viability 72 h (SRA737) [nM] | IC50, cell viability 72 h (MK-2206) [nM] | IC50, cell viability 72 h (Gemcitabine) [nM] | IC50, cell viability 72 h [1] [nM] | IC50, cell viability 72 h (Olaparib) [nM] | IC50, cell viability 72 h (5-Fluorouracil) [nM] |
| --- | --- | --- | --- | --- | --- | --- | --- | --- | --- | --- | --- | --- | --- | --- | --- | --- | --- | --- | --- | --- | --- | --- | --- | --- | --- | --- | --- | --- | --- | --- | --- | --- | --- | --- | --- |
| BxPC-3 (Pancreatic Carcinoma) | > 10000 | > 10000 | 1710 | 487 | 602 | > 10000 | > 300 | > 1000 | 1850 | > 1 | > 1000 | > 300 | > 3000 | > 1000 | > 10000 | > 10000 | > 10000 | 68.4 | > 1000 | > 1000 | > 10000 | > 10000 | > 10000 | > 1000 | > 10000 | > 1000 | > 10000 | > 10000 | > 10000 | > 10000 | > 10000 | > 300 | 4090 | > 10000 | > 20000 |
| C-33-A (Cervical Carcinoma) | > 10000 | 2640 | 206 | 938 | 19 | > 10000 | > 300 | > 1000 | 781 | > 1 | > 1000 | 20.1 | > 3000 | > 1000 | > 10000 | 909 | 8590 | 52.8 | 217 | > 1000 | > 10000 | > 10000 | > 10000 | > 1000 | 1420 | > 1000 | > 10000 | > 10000 | > 10000 | > 10000 | > 10000 | 25.6 | > 5000 | > 10000 | > 20000 |
| COR-L88 (Small Cell Lung Carcinoma) | > 10000 | > 10000 | 1760 | > 1000 | > 3000 | > 10000 | > 300 | > 1000 | > 2000 | > 1 | > 1000 | > 300 | > 3000 | 110 | > 10000 | > 10000 | > 10000 | 45.9 | > 1000 | > 1000 | > 10000 | > 10000 | > 10000 | > 1000 | > 10000 | > 1000 | > 10000 | > 10000 | > 10000 | > 10000 | > 10000 | > 300 | > 5000 | > 10000 | > 20000 |
| CPC-N (Small Cell Lung Carcinoma) | > 10000 | > 10000 | 297 | > 1000 | 21.1 | > 10000 | > 300 | 721 | > 2000 | > 1 | 59.8 | > 300 | > 3000 | 178 | 670 | 5130 | > 10000 | 4.03 | 887 | 774 | > 10000 | > 10000 | 6990 | > 1000 | 2130 | > 1000 | > 10000 | 8220 | > 10000 | 1760 | > 10000 | 144 | > 5000 | > 10000 | > 20000 |
| ES6 (Ewing's Sarcoma) | > 10000 | > 10000 | > 3000 | > 1000 | > 3000 | > 10000 | > 300 | > 1000 | > 2000 | > 1 | > 1000 | > 300 | > 3000 | > 1000 | > 10000 | > 10000 | > 10000 | 481 | > 1000 | > 1000 | > 10000 | > 10000 | > 10000 | > 1000 | > 10000 | > 1000 | > 10000 | 3630 | > 10000 | > 10000 | > 10000 | 268 | > 5000 | > 10000 | > 20000 |
